Laboratory results as given in US11385229B2, “Amplification technology using dual enzyme cascade detection” (The Regents of the University of California, priority 2017, dated 2022).

Tests used:
[1] = biological target: recombinant TEM-1 β-lactamase (Escherichia coli, UniProt P62593); conditions: recombinant TEM-1, absorbance 486 nm
Excerpt: To verify the targeting capacity and establish the amplification capacity of thiophenol-β-lac, we first targeted the β-lactamase TEM-1, which mediates resistance to β-lactam antibiotics, such as ampicillin We compared the sensitivity of DETECT against the standard chromogenic β-lactamase probe nitrocefin (FIG. 3)^19. Recombinant TEM-1 activity was quantified by measuring the formation of the hydrolytic chromogenic products from DETECT or nitrocefin in a time-dependent manner with a microplate reader (DETECT hydrolytic product=405 nm, and nitrocefin hydrolytic product=486 nm).
(B) Time-dependent plot of β-lactamase activity assay performed with DETECT, where varied concentrations of recombinant TEM-1 were incubated with the DETECT system in a 96-well plate for 90 min. The absorbance at 405 nm was collected in 5 min intervals and plotted against time. (C) Photograph of color change caused from DETECT amplification in wells where TEM-1 was present at increasing concentrations from right to left. The rightmost well is a control well where all the components were incubated in the absence of TEM-1. (D) Time-dependent biochemical experiment where varied concentrations of TEM-1 were incubated with the standard β-lactamase probe nitrocefin in a 96-well plate, and the respective absorbance values were collected on a microplate reader (486 nm). […]

[2] = test system: TEM-1-producing E. coli clinical isolate SF334; assay type: cell-based; conditions: E. coli isolate SF334 (TEM-1)
Protocol: Whole-cell suspensions of SF334 were prepared as described above. First, we confirmed β-lactamase activity in the TEM-1-producing clinical isolate by incubating 10^6 CFU of SF334 with the DETECT components (FIG. 4A), then collecting absorbance values at 405 nm after 45, 60, 120, and 180 min of incubation. […] The analogous experiment was performed with nitrocefin, where whole-cell suspensions of SF334 and SF505 were incubated with nitrocefin. As indicated in the literature, samples were incubated with nitrocefin for up to only 30 min to minimize background signal associated with non-selective hydrolysis^14.
Subsequent studies were performed to establish the detection limit of DETECT relative to nitrocefin, by serially diluting isolate SF334 in 100-fold increments. […]
(A) Schematic representation of the experiments performed with E. coli clinical isolates, where bacterial suspensions were incubated with DETECT components thiophenol-β-lac, disulfide-protected papain, and BAPA in a 96-well plate. Following 1 h of incubation, the sample wells were analyzed with a microplate reader and the absorbance at 405 nm was collected. […] (C) Plot displaying the signal outputs generated by DETECT in the presence of varying quantities of SF334, which was carried out to define the signal threshold of DETECT compared to the current standard, nitrocefin. […]

papain = papain (Carica papaya, UniProt P00784); conditions: BAPA as papain substrate; cited from earlier work
Chain of papain (P00784 134-345): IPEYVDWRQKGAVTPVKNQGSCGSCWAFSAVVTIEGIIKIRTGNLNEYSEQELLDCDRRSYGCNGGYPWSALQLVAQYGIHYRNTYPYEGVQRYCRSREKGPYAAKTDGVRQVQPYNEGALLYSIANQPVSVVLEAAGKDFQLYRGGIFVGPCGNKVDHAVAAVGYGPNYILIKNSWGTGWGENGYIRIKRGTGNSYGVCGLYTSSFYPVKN

[3] = test system: E. coli clinical isolates; test: standard susceptibility testing (disc diffusion); on Ampicillin susceptibility: key: S, susceptible; R, resistant; on Cephalexin susceptibility: key: S, susceptible; R, resistant; assay type: cell-based; conditions: for standard susceptibility testing: E. coli isolate SF334 (blaTEM-1)
[4] = test system: K. pneumoniae clinical isolates; test: standard susceptibility testing (disc diffusion); assay type: cell-based; further: key: S, susceptible; R, resistant
[5] = test system: E. coli isolated from CA-UTI urine samples; test: susceptibility testing of E. coli cultured from CA-UTI urine samples; assay type: cell-based; conditions: 23 of 34 E. coli from CA-UTI samples
Protocol: In order to establish the threshold Δλ405 of DETECT, that delineates β-lactam-susceptible from β-lactam-resistant urine samples, we simultaneously analyzed urine samples by traditional microbiology techniques as a standard for comparison (raw Δλ405 of DETECT values shown in Table S1). As such, urine samples were cultured for identification of E. coli, and E. coli isolates were tested for susceptibility to ampicillin and cephalexin. Samples were separated for analyses based on susceptibility or resistance to these agents, and an average Δλ405 value was calculated for each group. The average Δλ405 values corresponding to β-lactam-resistant and β-lactam-susceptible samples are shown in FIG. 5B, where the average Δλ405 of samples defined by traditional susceptibility analyses as resistant to ampicillin or cephalexin was 1.026, and the average Δλ405 in samples containing susceptible E. coli was 0.2990 (p=0.00048, two-tailed t-test). Finally, the threshold value was defined as 0.616, three standard deviations greater than the average Δλ405 of β-lactam-susceptible isolates. Therefore, samples with Δλ405>0.616 were defined as “positive” by DETECT (or resistant to early-generation β-lactams), and samples with Δλ405<0.616 were defined as “negative” by DETECT (or susceptible to β-lactams), the latter of which would qualify for treatment with an early-generation β-lactam. […]

[6] = E. coli isolate BE30, β-lactamase gene SHV-1
[7] = E. coli isolate BE115, β-lactamase gene OXA-1
[8] = E. coli isolate BE372, β-lactamase gene TEM-1 (1b)
[9] = E. coli isolate BE527, β-lactamase gene SHV-1
[10] = E. coli isolate BE1004, β-lactamase gene TEM-1 (1c)
[11] = E. coli isolate BE1173, β-lactamase gene TEM-1 (1b)
[12] = E. coli isolate BE1335, β-lactamase gene SHV-1
[13] = E. coli isolate BR2, β-lactamase gene KPC-2
[14] = E. coli isolate SF105, β-lactamase gene TEM-1
[15] = E. coli isolate SF141, β-lactamase gene CMY-2
[16] = E. coli isolate SF148, β-lactamase gene CTX-M-14
[17] = E. coli isolate SF207, β-lactamase gene CMY-2
[18] = E. coli isolate SF384, β-lactamase gene ND
[19] = E. coli isolate SF410, β-lactamase gene CTX-M-15
[20] = E. coli isolate SF487, β-lactamase gene CTX-M-14
[21] = E. coli isolate SF674, β-lactamase gene CTX-M-15
[22] = K. pneumoniae isolate ATCC 700603, β-lactamase gene SHV-18 (ESBL)
[23] = K. pneumoniae isolate BR1, β-lactamase gene SHV-185
[24] = K. pneumoniae isolate BR27, β-lactamase gene SHV-11
[25] = K. pneumoniae isolate BR28, β-lactamase gene KPC-2, SHV-11
[26] = K. pneumoniae isolate BR45, β-lactamase gene SHV-38/168
[27] = K. pneumoniae isolate BR50, β-lactamase gene SHV-62
[28] = K. pneumoniae isolate BR52, β-lactamase gene SHV-132
[29] = K. pneumoniae isolate BR313, β-lactamase gene SHV-83/187
[30] = K. pneumoniae isolate SF412, β-lactamase gene ND
[31] = K. pneumoniae isolate SF519, β-lactamase gene ND

Chain of recombinant TEM-1 β-lactamase (P62593 24-286 limits assumed): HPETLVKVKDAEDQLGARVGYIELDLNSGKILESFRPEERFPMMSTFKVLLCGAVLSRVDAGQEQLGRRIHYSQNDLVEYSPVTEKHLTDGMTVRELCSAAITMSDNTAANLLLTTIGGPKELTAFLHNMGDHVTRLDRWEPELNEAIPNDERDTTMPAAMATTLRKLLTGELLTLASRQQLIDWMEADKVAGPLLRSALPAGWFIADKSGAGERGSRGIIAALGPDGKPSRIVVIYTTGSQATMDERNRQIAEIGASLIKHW

In the case of `O=C(Cc1cccs1)N[C@@H]1C(=O)N2C(C(=O)O)=C(/C=C/c3ccc([N+](=O)[O-])cc3[N+](=O)[O-])CS[C@H]12` [nitrocefin], the “limit of detection of TEM-1” value [1] is reported as 4 nM and the “suspension of SF334 needed to identify β-lactamase activity above background” value [2] is reported as 10^7 CFU/mL.

For `N=C(N)NCCC[C@H](NC(=O)c1ccccc1)C(=O)Nc1ccc([N+](=O)[O-])cc1` [BAPA, N-benzoyl-L-arginine-p-nitroaniline], the “KCAT value with papain” value (papain) is listed as 0.7 to 0.8 s⁻¹.

With `CC1(C)S[C@@H]2[C@H](NC(=O)[C@H](N)c3ccccc3)C(=O)N2[C@H]1C(=O)O` [Ampicillin, ampicillin] the Ampicillin susceptibility [3, 6] was “R”, the Ampicillin susceptibility [3, 7] was “R” and the Ampicillin susceptibility [3, 8] was “R”. The Ampicillin susceptibility [3, 9] was “R”, the Ampicillin susceptibility [3, 10] was “R” and the Ampicillin susceptibility [3, 11] was “R”. For the same compound, the Ampicillin susceptibility [3, 12] was “R”, the Ampicillin susceptibility [3, 13] was “R” and the Ampicillin susceptibility [3, 14] was “R”. The Ampicillin susceptibility [3, 15] was “R”, the Ampicillin susceptibility [3, 16] was “R” and the Ampicillin susceptibility [3, 17] was “R”. The standard susceptibility testing [3] was “resistance”, the Ampicillin susceptibility [3, 18] was “S” and the Ampicillin susceptibility [3, 19] was “R”. For the same compound, the Ampicillin susceptibility [3, 20] was “R”, the Ampicillin susceptibility [3, 21] was “R” and the Ampicillin susceptibility [4, 22] was “R”. For the same compound, the Ampicillin susceptibility [4, 23] was “R”, the Ampicillin susceptibility [4, 24] was “R” and the Ampicillin susceptibility [4, 25] was “R”. The Ampicillin susceptibility [4, 26] was “R”, the Ampicillin susceptibility [4, 27] was “R” and the Ampicillin susceptibility [4, 28] was “R”. The Ampicillin susceptibility [4, 29] was “R”, the Ampicillin susceptibility [4, 30] was “S” and the Ampicillin susceptibility [4, 31] was “S”. For the same compound, the “E. coli isolates susceptible” value [5] was 68%.

In the case of `CC1=C(C(=O)O)N2C(=O)[C@@H](NC(=O)[C@H](N)c3ccccc3)[C@H]2SC1` [Cephalexin, cephalexin], the Cephalexin susceptibility [3, 6] is reported as “S”, the Cephalexin susceptibility [3, 7] is reported as “S” and the Cephalexin susceptibility [3, 8] is reported as “R”. The Cephalexin susceptibility [3, 9] was “S”, the Cephalexin susceptibility [3, 10] was “S” and the Cephalexin susceptibility [3, 11] was “S”. The Cephalexin susceptibility [3, 12] was “S”, the Cephalexin susceptibility [3, 13] was “R” and the Cephalexin susceptibility [3, 14] was “R”. The Cephalexin susceptibility [3, 15] was “R”, the Cephalexin susceptibility [3, 16] was “R” and the Cephalexin susceptibility [3, 17] was “R”. For the same compound, the standard susceptibility testing [3] was “resistance”, the Cephalexin susceptibility [3, 18] was “S” and the Cephalexin susceptibility [3, 19] was “R”. The Cephalexin susceptibility [3, 20] was “R”, the Cephalexin susceptibility [3, 21] was “R” and the Cephalexin susceptibility [4, 22] was “R”. The Cephalexin susceptibility [4, 23] was “S”, the Cephalexin susceptibility [4, 24] was “S” and the Cephalexin susceptibility [4, 25] was “R”. For the same compound, the Cephalexin susceptibility [4, 26] was “S”, the Cephalexin susceptibility [4, 27] was “S” and the Cephalexin susceptibility [4, 28] was “S”. The Cephalexin susceptibility [4, 29] was “S”, the Cephalexin susceptibility [4, 30] was “S” and the Cephalexin susceptibility [4, 31] was “S”.
